Consider 7 compounds from US20160346249A1 (priority 2012, published 2016).

One data set deals with CYP2C19 (Homo sapiens, UniProt P33261). Briefly: Inhibition of human CYP activity in microsomes: (S)-mephenytoin 4′-hydroxylation. The settings on record: read-out: IC50, CYP2C19 (S)-Mephenytoin 4′-hydroxylation; pooled human liver microsomes; 10 to 30 min at 37° C. For orientation: Liver microsomes are vesicles of endoplasmic reticulum, rich in cytochrome P450 enzymes.
Data set [1] can be described thus: In vitro metabolism in human hepatocytes. The settings on record: 100 μM. The method, then: Cryopreserved human hepatocytes (male) that are prepared by XenoTech, LLC (Lenexa, Kans.), are thawed on the day of use and resuspended in Waymouth's incubation media. The enzymatic activity of hepatocytes is monitored using 7-ethoxycoumarin and 7-hydroxycoumarin as substrates. […] The incubations are carried out for 4 hours with 1×10^6 viable cells/ml. […] At 0 and 4 hour, cell suspensions are extracted using two volumes of ice cold methanol. After centrifugation, the extracts are stored at −20° C. until further sample processing. The solvent in the samples are dried under a stream of nitrogen, and resuspended in methanol:water (1:1) before analysis.
The extracts of the 4 hour incubation mixture are analyzed by liquid chromatography/electrospray ionization-mass spectrometry (LC/ESI-MS) in the positive and negative ion modes to screen for possible metabolites. HPLC Methods 1 and 2 are used to find potential metabolites, and the HPLC and mass spectrometry systems are described in Table 56. The same instrumentation and methods in HPLC Method 1 are used in HPLC Method 2 with the exception that the mobile phases and gradient are changed to 0.4% HCOOH in H2O for mobile A and CH3OH for mobile phase B. The mass spectrometer is LCQ™ Ion Trap Mass Spectrometer and is in either the positive or negative electrospray mode with the ion spray set at 4.5 kV. The capillary temperature is 250° C., the nitrogen sheath gas flow rate is ˜80 unit, the auxiliary nitrogen gas flow rate is 20 unit, and the collision gas is helium.

The subject of data set [2] is FMO, human liver microsome (HLM). Briefly: FMO dependent metabolism (pre-incubation temperature), human liver microsomes. The conditions noted are these: HLM, positive control. As for the experimental part: (§1) The microsomal incubation mixtures (ca. 0.2 mL) were prepared in triplicate in 0.1M potassium phosphate buffer (pH 7.4) containing 0.25 mg/mL microsomal protein (RLM and HLM), 1 mM EDTA, 4 mM MgCl2, and […]. Incubation mixtures were pre-incubated aerobically in a shaking water bath at 37° C. and 45° C. respectively for ca. 5 minutes. The reaction was initiated by the addition of NADPH (final concentration of 1 mM). […] For the positive controls, benzydamine (Sigma-Aldrich, St. Louis, Mo.) (final concentration 200 μM) was used in the incubation mixture. For the negative controls, water was used in the incubation mixtures instead of microsome protein. The mixtures were kept at ca. −20° C. before analysis by LC-MS/MS.
(§2) The incubation of benzydamine (positive control, 200 μM) was carried out concurrently and the formation of benzydamine N-oxide was monitored by LC-MS/MS.

For data set [3], the system named is FMO, rat liver microsome (RLM). Briefly: FMO dependent metabolism (pre-incubation temperature), rat liver microsomes. The conditions noted are these: for formation from benzydamine 200 μM, AUC ratio to internal standard (mean ± SD): RLM, positive control. As for the experimental part: as §1, §2
The conditions of data set [4]: eight weeks of treatment; cited from earlier work.
For data set [5] the following is noted: human, in vivo; cited from earlier work.
Data set [6] can be described thus: NADPH dependent metabolism, human liver microsomes. The format is in vitro ADME. The settings on record: HLM. The method, then: (§3) Bicifadine (10 μM) was used as the positive control and the formation of the lactam metabolites of bicifadine (M-12) was monitored.
A short description of data set [7]: NADPH dependent metabolism, rat liver microsomes. The format is in vitro ADME. The settings on record: RLM. The method, then: as §3

Chain of CYP2C19 (P33261 whole entry): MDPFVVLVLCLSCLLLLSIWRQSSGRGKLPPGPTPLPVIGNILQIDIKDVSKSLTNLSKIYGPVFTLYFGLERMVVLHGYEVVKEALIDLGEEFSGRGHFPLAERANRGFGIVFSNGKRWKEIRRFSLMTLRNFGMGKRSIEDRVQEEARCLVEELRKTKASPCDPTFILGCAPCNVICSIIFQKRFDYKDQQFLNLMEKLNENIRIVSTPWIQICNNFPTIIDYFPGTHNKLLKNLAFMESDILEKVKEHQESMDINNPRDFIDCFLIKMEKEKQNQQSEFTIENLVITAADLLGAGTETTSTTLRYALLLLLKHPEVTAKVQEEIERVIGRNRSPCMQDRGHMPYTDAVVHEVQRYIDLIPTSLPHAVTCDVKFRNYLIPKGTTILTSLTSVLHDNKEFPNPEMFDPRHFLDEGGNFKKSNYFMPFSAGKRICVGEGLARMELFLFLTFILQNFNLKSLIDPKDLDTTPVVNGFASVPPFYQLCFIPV

For orientation: IC50 means the point on the concentration scale where inhibition reaches its midpoint. As for `CC[C@@]1(c2ccccc2)C(=O)NC(=O)N(Cc2ccccc2)C1=O` [(R)-N-3-benzyl-Phenobarb-ital], the IC50 on CYP2C19 came to 300 nM. In the case of `O=c1ccc2ccc(O)cc2o1` [7-hydroxycoumarin, reference compound], in data set [1] (activity control substrate), the “metabolized after 4 hours incubation” value stood at 99.1%.

With `C[N+](C)([O-])CCCOc1nn(Cc2ccccc2)c2ccccc12` [Benzydamine N-oxide, benzydamine N-oxide], the “formation from benzydamine 200 μM, AUC ratio to internal standard (mean ± SD)” value was found to be 35.70 ± 0.86 in data set [2] (pre-treatment 37° C.), 7.68 ± 1.51 in data set [2] (pre-treatment 45° C.), 75.35 ± 0.75 in data set [3] (pre-treatment 37° C.) and 15.86 ± 1.31 in data set [3] (pre-treatment 45° C.). `N[C@@H]1CC[C@@H](c2ccc(Cl)c(Cl)c2)c2ccccc21` [SEP-289]: in data set [4], the “primary efficacy endpoint vs placebo (17-item HAM-D)” value is on record as “did not meet the primary efficacy endpoint compared to placebo”. Consider `CCOc1ccc2ccc(=O)oc2c1` [7-ethoxycoumarin, reference compound], for which, in data set [1] (male, human, hepatocytes, 4 h), the “metabolized after 4 hours incubation” value was determined as 68.9%. For `COC[C@@H]1[C@@H](c2ccc(Cl)c(Cl)c2)C[C@@H]2CC[C@H]1N2` [GSK372475], the “benefit in comparison to placebo” value in data set [5] is reported as “failed to demonstrate a significant benefit in comparison to placebo”. With `O=C1NC[C@H]2C[C@@]12c1ccc(Cl)c(Cl)c1` [EB-10101 isomer, (1S,5R)-5-(3,4-dichlorophenyl)-3-azabicyclo[3.1.0]hexan-4-one], the “area ratio isomer vs EB-10101” value in data set [6] is given as “ca. 25 fold”; in data set [7], approximately 140 fold. Moreover, the “amount formed with 37° C. vs 45° C. pre-treatment” value in data set [3] (rat, 30 min, 10 μM, pH 7.4) was 7.3 fold.
